How the values were obtained:
Test in all cases: biochemical
Parameters in all cases: KINOMEscan scanMAX active site-directed competition binding assay, percent of control, 468 kinases
Conditions in all cases: competition binding, percent of control
AKT1 = AKT1 (Homo sapiens, UniProt P31749)
Outline: (§1)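 Single-concentration screen (100 μM S-carvone) in a competition binding panel of 468 human kinases (KINOMEscan scanMAX); results given as percent of control, hit cutoff 35%.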

BRSK2 = BRSK2 (Homo sapiens, UniProt Q8IWQ3)
Outline: as §1

EPHA6 = EPHA6 (Homo sapiens, UniProt Q9UF33)
Outline: as §1

EPHB2 = EPHB2 (Homo sapiens, UniProt P29323)
Sequence of EPHB2 (P29323 whole entry): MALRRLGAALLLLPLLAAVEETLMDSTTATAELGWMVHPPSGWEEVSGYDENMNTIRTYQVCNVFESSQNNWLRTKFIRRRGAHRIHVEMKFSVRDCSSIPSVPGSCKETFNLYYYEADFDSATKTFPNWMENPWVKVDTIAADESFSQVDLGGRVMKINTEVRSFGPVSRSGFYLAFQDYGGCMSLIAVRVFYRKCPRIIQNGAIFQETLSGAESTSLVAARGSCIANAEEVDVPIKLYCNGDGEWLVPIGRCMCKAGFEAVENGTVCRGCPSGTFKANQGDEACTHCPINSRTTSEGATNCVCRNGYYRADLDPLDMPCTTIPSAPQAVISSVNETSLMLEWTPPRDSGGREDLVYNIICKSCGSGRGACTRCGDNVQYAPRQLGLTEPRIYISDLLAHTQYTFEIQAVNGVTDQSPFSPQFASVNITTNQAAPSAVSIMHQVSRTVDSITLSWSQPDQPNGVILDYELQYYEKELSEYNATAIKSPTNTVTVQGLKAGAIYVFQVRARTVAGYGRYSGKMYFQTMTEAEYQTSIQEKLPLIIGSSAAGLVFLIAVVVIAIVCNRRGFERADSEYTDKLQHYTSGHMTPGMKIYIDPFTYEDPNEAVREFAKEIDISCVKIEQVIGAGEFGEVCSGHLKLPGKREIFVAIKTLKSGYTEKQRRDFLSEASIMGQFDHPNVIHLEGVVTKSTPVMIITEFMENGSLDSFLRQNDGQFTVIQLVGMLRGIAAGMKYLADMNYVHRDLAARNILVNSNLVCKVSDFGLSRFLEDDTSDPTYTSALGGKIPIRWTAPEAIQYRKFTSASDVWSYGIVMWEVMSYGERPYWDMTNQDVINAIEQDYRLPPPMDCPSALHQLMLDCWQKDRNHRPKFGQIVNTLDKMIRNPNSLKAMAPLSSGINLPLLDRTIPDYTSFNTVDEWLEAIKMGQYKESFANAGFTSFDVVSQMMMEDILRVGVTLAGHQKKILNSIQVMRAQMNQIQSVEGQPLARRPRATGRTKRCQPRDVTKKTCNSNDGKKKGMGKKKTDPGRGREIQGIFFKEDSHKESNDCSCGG
Outline: as §1

ERN1 = ERN1 (Homo sapiens, UniProt O75460)
Outline: as §1

FLT3(K663Q) = FLT3(K663Q) (Homo sapiens, UniProt P36888, K663Q)
Outline: as §1

FLT3-autoinhibited = FLT3-autoinhibited (Homo sapiens, UniProt P36888)
Outline: as §1

HIPK1 = HIPK1 (Homo sapiens, UniProt Q86Z02)
Outline: as §1

KIT(D816H) = KIT(D816H) (Homo sapiens, UniProt P10721, D816H)
Sequence of KIT(D816H) (P10721 whole entry D816H): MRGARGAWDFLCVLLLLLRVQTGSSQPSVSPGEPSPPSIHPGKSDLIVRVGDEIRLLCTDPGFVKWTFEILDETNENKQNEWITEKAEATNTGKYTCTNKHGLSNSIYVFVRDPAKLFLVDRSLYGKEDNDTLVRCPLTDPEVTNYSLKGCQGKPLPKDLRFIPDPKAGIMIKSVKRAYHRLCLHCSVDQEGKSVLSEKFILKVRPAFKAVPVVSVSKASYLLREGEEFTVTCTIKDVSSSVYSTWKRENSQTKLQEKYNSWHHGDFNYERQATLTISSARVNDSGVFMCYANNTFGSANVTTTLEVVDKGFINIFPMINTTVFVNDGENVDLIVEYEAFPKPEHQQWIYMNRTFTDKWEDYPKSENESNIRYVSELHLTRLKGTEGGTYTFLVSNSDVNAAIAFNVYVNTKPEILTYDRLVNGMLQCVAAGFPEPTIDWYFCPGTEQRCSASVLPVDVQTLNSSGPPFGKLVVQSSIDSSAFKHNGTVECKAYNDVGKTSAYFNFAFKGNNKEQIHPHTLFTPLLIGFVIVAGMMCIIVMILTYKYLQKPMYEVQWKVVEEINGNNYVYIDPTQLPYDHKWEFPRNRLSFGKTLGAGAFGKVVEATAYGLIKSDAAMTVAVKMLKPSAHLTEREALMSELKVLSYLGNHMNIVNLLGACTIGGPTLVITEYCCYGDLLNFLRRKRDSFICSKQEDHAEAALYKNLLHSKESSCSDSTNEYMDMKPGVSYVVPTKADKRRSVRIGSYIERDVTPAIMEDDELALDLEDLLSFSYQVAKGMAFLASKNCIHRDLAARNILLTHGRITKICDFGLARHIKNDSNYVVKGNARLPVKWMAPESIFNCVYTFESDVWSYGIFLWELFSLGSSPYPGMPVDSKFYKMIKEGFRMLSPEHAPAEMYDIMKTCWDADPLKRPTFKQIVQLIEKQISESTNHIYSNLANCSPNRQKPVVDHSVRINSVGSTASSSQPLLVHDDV
Outline: as §1

KIT(V559D) = KIT(V559D) (Homo sapiens, UniProt P10721, V559D)
Sequence of KIT(V559D) (P10721 whole entry V559D): as the sequence (P10721 whole entry D816H) above, with V559D, H816D counted along it
Outline: as §1

NEK2 = NEK2 (Homo sapiens, UniProt P51955)
Outline: as §1

NEK4 = NEK4 (Homo sapiens, UniProt P51957)
Outline: as §1

NEK9 = NEK9 (Homo sapiens, UniProt Q8TD19)
Sequence of NEK9 (Q8TD19 whole entry): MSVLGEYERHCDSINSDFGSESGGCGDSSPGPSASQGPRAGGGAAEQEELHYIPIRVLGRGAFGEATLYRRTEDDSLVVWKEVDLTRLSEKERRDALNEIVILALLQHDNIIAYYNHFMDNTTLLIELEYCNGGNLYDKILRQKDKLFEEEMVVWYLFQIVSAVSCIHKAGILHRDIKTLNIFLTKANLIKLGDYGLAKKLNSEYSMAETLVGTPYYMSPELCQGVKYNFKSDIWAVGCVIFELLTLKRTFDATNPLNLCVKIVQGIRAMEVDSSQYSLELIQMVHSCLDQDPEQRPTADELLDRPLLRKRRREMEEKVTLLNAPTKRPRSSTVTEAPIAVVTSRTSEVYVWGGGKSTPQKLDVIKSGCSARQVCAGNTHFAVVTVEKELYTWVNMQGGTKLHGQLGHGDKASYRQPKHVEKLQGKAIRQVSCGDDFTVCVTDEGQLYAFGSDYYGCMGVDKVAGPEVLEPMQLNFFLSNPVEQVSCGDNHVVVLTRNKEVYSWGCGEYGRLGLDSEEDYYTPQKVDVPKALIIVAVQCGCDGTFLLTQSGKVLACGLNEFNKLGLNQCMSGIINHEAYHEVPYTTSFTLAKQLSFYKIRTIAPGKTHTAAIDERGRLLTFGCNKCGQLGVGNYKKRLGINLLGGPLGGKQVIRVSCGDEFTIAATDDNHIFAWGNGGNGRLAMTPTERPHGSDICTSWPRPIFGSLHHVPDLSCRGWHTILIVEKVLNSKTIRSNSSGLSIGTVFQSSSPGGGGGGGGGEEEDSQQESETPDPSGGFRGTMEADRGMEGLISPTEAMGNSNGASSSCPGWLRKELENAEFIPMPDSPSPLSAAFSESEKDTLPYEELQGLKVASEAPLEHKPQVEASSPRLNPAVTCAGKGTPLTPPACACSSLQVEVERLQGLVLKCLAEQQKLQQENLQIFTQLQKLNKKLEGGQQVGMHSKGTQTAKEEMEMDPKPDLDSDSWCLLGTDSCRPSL
Outline: as §1

PAK7 = target: T1, PAK7 (Homo sapiens, UniProt Q9P286)
T1 construct: gene PAK5
Outline: as §1

PIK4CB = target: T2, PIK4CB (Homo sapiens, UniProt Q9UBF8)
T2 construct: gene PI4KB
Outline: as §1

PIM1 = PIM1 (Homo sapiens, UniProt P11309)
Outline: as §1

QSK = target: T3, QSK (Homo sapiens, UniProt Q9Y2K2)
T3 construct: gene SIK3
T3 sequence (Q9Y2K2 whole entry): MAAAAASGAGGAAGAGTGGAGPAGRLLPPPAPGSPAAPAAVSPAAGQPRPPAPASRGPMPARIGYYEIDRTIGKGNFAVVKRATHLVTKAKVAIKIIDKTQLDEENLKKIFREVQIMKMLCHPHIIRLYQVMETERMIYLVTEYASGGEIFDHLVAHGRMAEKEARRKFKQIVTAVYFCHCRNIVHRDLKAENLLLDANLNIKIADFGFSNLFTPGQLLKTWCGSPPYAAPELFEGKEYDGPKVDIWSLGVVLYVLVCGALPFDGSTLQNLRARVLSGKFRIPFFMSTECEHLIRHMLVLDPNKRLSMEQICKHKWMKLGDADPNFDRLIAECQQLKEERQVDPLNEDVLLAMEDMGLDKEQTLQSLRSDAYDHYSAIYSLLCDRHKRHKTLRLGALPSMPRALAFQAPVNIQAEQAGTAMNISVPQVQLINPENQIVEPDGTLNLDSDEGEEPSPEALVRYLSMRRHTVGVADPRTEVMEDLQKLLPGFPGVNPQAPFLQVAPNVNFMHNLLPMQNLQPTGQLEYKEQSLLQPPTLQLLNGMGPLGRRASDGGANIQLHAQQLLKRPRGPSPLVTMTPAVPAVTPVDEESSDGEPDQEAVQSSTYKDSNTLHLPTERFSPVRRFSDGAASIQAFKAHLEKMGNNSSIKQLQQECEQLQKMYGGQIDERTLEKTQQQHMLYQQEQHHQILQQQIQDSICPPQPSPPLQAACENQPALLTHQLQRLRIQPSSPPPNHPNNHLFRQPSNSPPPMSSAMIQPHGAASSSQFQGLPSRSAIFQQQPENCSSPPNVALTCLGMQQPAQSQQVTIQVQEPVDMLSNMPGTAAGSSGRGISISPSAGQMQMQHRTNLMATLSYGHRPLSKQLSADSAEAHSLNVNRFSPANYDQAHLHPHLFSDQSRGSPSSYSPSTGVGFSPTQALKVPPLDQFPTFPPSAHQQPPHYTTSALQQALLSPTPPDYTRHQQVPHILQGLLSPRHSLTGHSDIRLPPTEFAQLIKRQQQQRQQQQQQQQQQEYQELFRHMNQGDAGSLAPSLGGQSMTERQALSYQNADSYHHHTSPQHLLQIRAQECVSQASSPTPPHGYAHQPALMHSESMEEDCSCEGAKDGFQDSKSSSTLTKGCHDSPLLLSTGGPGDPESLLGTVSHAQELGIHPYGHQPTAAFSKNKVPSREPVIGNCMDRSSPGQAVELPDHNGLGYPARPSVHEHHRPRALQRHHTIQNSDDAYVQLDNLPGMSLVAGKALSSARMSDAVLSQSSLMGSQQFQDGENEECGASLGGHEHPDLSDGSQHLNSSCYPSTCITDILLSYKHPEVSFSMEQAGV
Outline: as §1

[1] = target: T4, RSK4(Kin.Dom.2-C-terminal) (Homo sapiens, UniProt Q9UK32)
T4 construct: gene RPS6KA6; Kin.Dom.2-C-terminal
Outline: as §1

SLK = SLK (Homo sapiens, UniProt Q9H2G2)
Outline: as §1

TLK1 = TLK1 (Homo sapiens, UniProt Q9UKI8)
Outline: as §1

TLK2 = TLK2 (Homo sapiens, UniProt Q86UE8)
Outline: as §1

TXK = TXK (Homo sapiens, UniProt P42681)
Outline: as §1

Sequence of AKT1 (P31749 whole entry): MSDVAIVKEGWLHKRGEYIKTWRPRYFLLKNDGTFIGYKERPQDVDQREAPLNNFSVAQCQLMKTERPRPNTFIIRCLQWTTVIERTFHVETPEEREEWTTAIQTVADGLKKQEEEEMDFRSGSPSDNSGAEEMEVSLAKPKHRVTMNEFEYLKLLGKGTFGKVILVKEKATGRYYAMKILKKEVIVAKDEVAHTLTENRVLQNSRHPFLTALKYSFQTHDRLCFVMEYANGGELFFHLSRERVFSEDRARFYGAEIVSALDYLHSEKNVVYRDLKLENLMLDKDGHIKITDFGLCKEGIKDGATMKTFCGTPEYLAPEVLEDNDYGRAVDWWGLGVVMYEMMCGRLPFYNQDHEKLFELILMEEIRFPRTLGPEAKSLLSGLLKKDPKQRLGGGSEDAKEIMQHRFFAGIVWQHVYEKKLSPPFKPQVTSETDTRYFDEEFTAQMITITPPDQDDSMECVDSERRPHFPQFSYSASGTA

Structure (SMILES): C=C(C)[C@H]1CC=C(C)C(=O)C1 [S-carvone]
- remaining binding at 100 µM (AKT1): 84%
- remaining binding at 100 µM (BRSK2): 79%
- remaining binding at 100 µM (EPHA6): 64%
- remaining binding at 100 µM (EPHB2): 66%
- remaining binding at 100 µM (ERN1): 90%
- remaining binding at 100 µM (FLT3(K663Q)): 95%
- remaining binding at 100 µM (FLT3-autoinhibited): 67%
- remaining binding at 100 µM (HIPK1): 61%
- remaining binding at 100 µM (KIT(D816H)): 46%
- remaining binding at 100 µM (KIT(V559D)): 89%
- remaining binding at 100 µM (NEK2): 100%
- remaining binding at 100 µM (NEK4): 97%
- remaining binding at 100 µM (NEK9): 80%
- remaining binding at 100 µM (PAK7): 100%
- remaining binding at 100 µM (PIK4CB): 65%
- remaining binding at 100 µM (PIM1): 77%
- remaining binding at 100 µM (QSK): 89%
- remaining binding at 100 µM [1]: 57%
- remaining binding at 100 µM (SLK): 78%
- remaining binding at 100 µM (TLK1): 59%
- remaining binding at 100 µM (TLK2): 94%
- remaining binding at 100 µM (TXK): 89%
